Laboratory results reported in a melting point compilation (Tetko et al.).

Point of comparison: `CNc1ccccn1`, melting point 15 °C. Against it:
- Cc1cccc2c1CC(C(=O)O)NC2 (racemic) — higher, 316 to 318 °C
- O=c1[nH]cnc2c1ncn2C1CC(O)C(CO)O1 (configuration not stated) — higher, 250 °C
- COc1cccc(C(=O)O)c1OC — higher, 123 °C
- Cc1ccc(S(=O)(=O)NCCNS(=O)(=O)c2ccc(C)cc2)cc1 — higher, 160 °C
- CC(Oc1cc(Cl)c(Cl)cc1Cl)C(=O)O (configuration not stated) — higher, 182 °C
- O=C(Nc1ccccc1)OC1CCCCC(OC(=O)Nc2ccccc2)C1 (configuration not stated) — higher, 170 °C
- CC1COc2ccccc2N1C(=O)C(Cl)Cl (configuration not stated) — higher, 108 °C
- CC1CCc2cc3c(cc2N1)CCC(C)N3C(=O)c1ccccc1 (configuration not stated) — higher, 145 °C
- CCn1nc(C)cc1C(=O)O — higher, 139 °C
- COP(=O)(OC)C(O)C(Cl)(Cl)Cl (configuration not stated) — higher, 80 °C
- COc1ccccc1Oc1ccc(C(F)(F)F)cc1N — higher, 28 °C
- CCC(=O)c1ccc(F)c(C(F)(F)F)c1 — higher, 32 °C
- CC12NC(Cc3ccccc31)c1ccccc12 (configuration not stated) — higher, 68.8 °C
- CC1=CC=C(C(C)C)CC1 — lower, -31.1 °C
- OC1OC2(CCCCC2)Cc2ccccc21 (configuration not stated) — higher, 89 °C
- NCC(O)C(=O)O (configuration not stated) — higher, 235 °C
- CSc1c(C#N)c(N)nc2c(/N=N/c3ccc(C(=O)O)cc3)c(N)nn12 — higher, 305 to 307 °C
- CCOC(=O)c1c(Nc2ccc(OC)cc2)sc2c(-c3ccc(Cl)cc3)c(C#N)c(N)nc12 — higher, 220 to 224 °C
- C[Si](C)(Cl)O[Si](C)(C)Cl — lower, -37.5 °C
- CCOC1C(=O)NC2=C(C1=O)C(c1ccc(Br)cc1)c1c(c3ccccc3oc1=O)O2 (configuration not stated) — higher, 196 °C
- CC(C)N(C(=O)COc1nnc(C(F)(F)F)s1)c1ccc(F)cc1 — higher, 78 °C
- COC(=O)c1cc(C)n(C)c1C — higher, 117 °C
- C=CC1(C)CC(OC(=O)CO)C2(C)C(C)CCC3(CCC(=O)C32)C(C)C1O (configuration not stated) — higher, 170 °C
- O=C(O)c1csc2ccc(Br)cc12 — higher, 284 to 287 °C
- CC(C)(C)c1cc(O)ccc1O — higher, 128 °C
- CC(=O)NNC(N)=S — higher, 165 to 170 °C
- Nc1c(I)cc(I)cc1C(=O)O — higher, 241 to 243 °C
- CCOc1ccccc1[N+](=O)[O-] — lower, 2.2 °C
- C#CC1(O)CCC2C3CCC4=CC(=O)CCC4C3CCC21CC (configuration not stated) — higher, 240 °C
- COC(=O)c1ccc(C#Cc2ccccc2)o1 — higher, 79 to 82 °C
- O=C1NN=C(C(F)(F)F)C1=NNc1cc(Cl)ccc1Cl — higher, 214 °C
- O=C(O)c1cn(C2CC2)c2cc(Cl)c(F)cc2c1=O — higher, 239 to 244 °C
- C/C(=N\c1ccc(C(=O)O)c(O)c1)c1c(O)c2ccccc2n(-c2ccccc2)c1=O — higher, 177 °C
- Cc1nn(C)c(C)c1Br — higher, 35 °C
- O=C(Nc1nc(-c2ccccc2)cs1)c1ccccc1 — higher, 123 °C
- CCSC(=O)N(CC)C1CCCCC1 — lower, 11.5 °C
- O=C1C=CC2=CC(=O)C=CC2=C1 — higher, 132 °C
- O=C(O)C=CC(=O)Nc1ccc(Cl)cc1Cl — higher, 178 °C
- Cc1ccc(O)cn1 — higher, 169 °C
- CCOC(=O)C(C(C)=O)C(=O)/C=C/c1ccc(OC)c(OCc2ccccc2)c1 (configuration not stated) — higher, 207 to 208 °C
- COc1cc(C=C(S)C(=O)O)ccc1O — higher, 161 °C
- CC(C)N1CSc2nnc(-c3ccccc3)n2C1 — higher, 225 to 226 °C
- CC1(C)OC(=O)C(=NNc2ccccc2[N+](=O)[O-])C(=O)O1 — higher, 165 °C
- O=C(CC(NC(=O)OCC1c2ccccc2-c2ccccc21)C(=O)O)NC(c1ccccc1)(c1ccccc1)c1ccccc1 (configuration not stated) — higher, 205 °C
- CC(C)=CCCC(C)=CC=CC(C)=CC=CC(C)=CC=CC=C(C)C=CC=C(C)C=CC=C(C)CCC=C(C)C — higher, 175 °C
- CC(C)CCC#N — lower, -51 °C
- Cc1ccc(F)cc1NC(N)=S — higher, 120 to 123 °C
- Clc1ccc(C2C3CCc4ccccc4C3=NN2c2ccc(Cl)cc2)cc1 (configuration not stated) — higher, 186 to 188 °C
- COc1ccc(C2=CCC3(C)C(CCC4C3CCC3(C)C(OC(C)=O)CCC43)C2)cc1 (configuration not stated) — higher, 177 to 180 °C
- Cc1ccc(C(N)=O)c(N)c1 — higher, 147 to 148 °C
- NC(=O)C1CCCN1C(=O)COC(=O)c1ccccc1 (configuration not stated) — higher, 194 °C
- CC(=O)c1ccc(NC(=O)C(C(F)(F)F)C(F)(F)F)cc1 — higher, 174 °C
- CCn1c(-c2ccccc2)cc2ccccc21 — higher, 86 °C
- Nc1ccc(C(F)(F)F)c(F)c1 — higher, 56 °C
- CCOC1Oc2ccc(C)cc2C(=O)/C1=C/Nc1nc2ccc(Cl)cc2s1 (configuration not stated) — higher, 146 to 148 °C
- Nc1nc(-c2ccccc2)ns1 — higher, 152 to 156 °C
- O=C(Nc1ccc(Oc2ccc(Cl)cc2)c(Cl)c1)c1cc(I)cc(I)c1O — higher, 169 °C
- COC(=O)C1CC(=O)CN1C(=O)OC(C)(C)C (configuration not stated) — higher, 38 °C
- N=C(N)c1ccc(Oc2ccc(C(=N)N)cc2)cc1 — higher, 216 °C
- O=[N+]([O-])c1cn[nH]c1 — higher, 161 °C
- O=C(O)CCC(F)(F)F — higher, 31 °C
- O[C@@H]1CCCC/C=C\c2ccccc21 — higher, 97 °C
- COC(=O)c1c(Cl)cccc1Cl — higher, 28 °C
- CCCCCCNC — lower, -31 °C
- CSC(Nc1ccccc1)=C(C#N)C#N — higher, 80 °C
- O=C(O)c1ccsc1Br — higher, 174 to 175 °C
- O=C(O)CCOc1ccc2c(c1)[nH]c1ccccc12 — higher, 184 °C
- O=C(C1=NOC2C(=O)N(c3ccc(Br)cc3)C(=O)C12)c1ccco1 (configuration not stated) — higher, 176 °C
- NC(=O)NNc1ccccc1 — higher, 174 to 176 °C
- CCOC(=O)c1c[nH]c2c(F)c(F)c(F)cc2c1=O — higher, 267 to 272 °C
- CC1(C)C=CC=C(C(=O)O)C=C1 — higher, 88.5 °C
- C=C1C(=O)C23C(OC(C)=O)CC4C5(C)CCCC4(C(=O)OC5)C2C(OC(C)=O)CC1C3OC(C)=O (configuration not stated) — higher, 235 °C
- Cc1ccc(OC(=O)C(C)(c2ccccc2)c2ccccc2)cc1 — higher, 111 °C
- OCc1ccccc1CN1CCOCC1 — higher, 59 °C
- NC(=O)c1cnccc1/C=C/c1ccccc1 — higher, 200 °C
- FC(F)(F)c1ccc(I)cc1 — lower, -8 °C
- O=C(N[C@@H](Cc1ccccc1)C(=O)O)OCC1c2ccccc2-c2ccccc21 — higher, 183 to 187 °C
- CCCCCCCC(N)=O — higher, 108 °C
- CCNc1nc(Cl)nc(N(CC)CC)n1 — higher, 102 °C
- CCCCCCCCCCCCCCCCC(=O)OCC — higher, 28 °C
- OC1c2ccccc2C=Cc2ccccc21 — higher, 126 °C
- CC(C)CCCCCCCOC(=O)c1ccccc1C(=O)OCCCCCCCC(C)C — lower, -45.6 °C
- COc1ccc(OC)c(N=C=S)c1 — higher, 36 °C
- COC1CC1 — lower, -119 °C
- C=C(CC(=O)OCC)C(=O)OCC — higher, 58.5 °C
- O=C1CC(c2cccc(C3=NOC(=O)C3)c2)=NO1 — higher, 190 °C
- Cc1cc(Cl)c2ccccc2n1 — higher, 39 to 41 °C
- Cc1ccsc1C(=O)O — higher, 147 °C
- N#CCCN(CCO)c1ccc(N=Nc2ccc([N+](=O)[O-])cc2Cl)cc1 — higher, 157 °C
- O=C(O)c1ccc(C(=O)O)o1 — higher, 342 °C
- CC(=O)CCc1cc2c(cc1[N+](=O)[O-])CCC(C)N2 (configuration not stated) — higher, 95 °C
- CCCCOC(=O)CCCCC(=O)OCCCC — lower, -32.4 °C
- O=C(O)c1ccc(OCc2ccccc2)cc1 — higher, 189 °C
- Nc1ncnc2c1ncn2C1OC(CO)CC1O (configuration not stated) — higher, 226 °C
- c1ccc([C@@H]2COC(c3cccc(C4=N[C@H](c5ccccc5)CO4)n3)=N2)cc1 — higher, 171 to 175 °C
- N#Cc1cnc2[nH]ccc2c1 — higher, 228 °C
- CCOC(=O)c1nnn2c1nc(S)c1ccccc12 — higher, 171 to 172 °C
- Cc1onc(-c2c(Cl)cccc2Cl)c1CC#N — higher, 75 to 78 °C
- C=CCOC(=O)C=CC(=O)OCC=C — lower, -47 °C
- FC(F)(F)C(I)(C(F)(F)F)C(F)(F)F — higher, 60 °C
- Nc1ccc(-n2cnc(Cl)c2Cl)cc1 — higher, 104 to 105 °C
- Cc1nc(/C(C#N)=C/c2ccc(N(C)C)cc2)sc1/N=N/c1ccc(F)cc1 — higher, 149 °C
- O=C1C=Cc2ccccc2C1=O — higher, 136 to 141 °C
- Cc1ccc(C)c(NN=C2C(=O)NN=C2C(F)(F)F)c1 — higher, 189 °C
- O=NN(CC(c1ccccc1)c1ccccc1)CC(c1ccccc1)c1ccccc1 — higher, 179 °C
- Cc1ccc2ccccc2c1[N+](=O)[O-] — higher, 81.5 °C
- O=C1CC(=O)CC(c2ccccc2)C1 — higher, 188 °C
- CN1CCN(c2ncc(Br)c(OCc3ccccc3)n2)CC1 — higher, 63 °C
- O=C(C1=NOC2C(=O)N(c3ccc(F)cc3)C(=O)C12)c1ccccc1 (configuration not stated) — higher, 156 °C
- Cc1ccc(-c2onc(C(=O)c3ccc([N+](=O)[O-])cc3)c2S(=O)(=O)c2ccccc2)cc1 — higher, 225 to 227 °C
- Clc1cc2oc3c(Cl)c(Cl)ccc3c2cc1Cl — higher, 195 °C
- OCc1ccc(-c2ccco2)cc1 — higher, 85 to 86 °C
- O=C(CS)Nc1ccc(F)cc1 — higher, 92 to 94 °C
- Nc1ccc(CN2CCS(=O)(=O)CC2)cc1 — higher, 156 °C
- O=C1c2cc([N+](=O)[O-])ccc2-c2ccc([N+](=O)[O-])cc21 — higher, 294 °C
- CNN — lower, -21 °C
- CC12CCC3C(C(=O)CC4CC(O)CCC43C)C1CCC2O (configuration not stated) — higher, 198 °C
- Cc1nc(-c2ccc(C=O)s2)cs1 — higher, 127 to 128 °C
- ON=Cc1ccc(Cl)cc1Cl — higher, 134 to 136 °C
- Cc1ccc(C(C)C(=O)O)cc1 (configuration not stated) — higher, 41 °C
- CCCCCCCCCCCCl — lower, -17 °C
- CC(/C=C(\C)c1ccc(-c2ccccc2)cc1)=NNS(=O)(=O)c1ccc(C)cc1 — higher, 132 to 134 °C
- Cc1cc(I)cnc1NCC(=O)OC(C)(C)C — higher, 99 °C
- CC1=C[C@@]2(C)O[C@@H](c3ccccc3)[C@@H]1C(C#N)(C#N)C2(C#N)C#N — higher, 170 to 171 °C
- CC(C)(C)N(NC(=O)c1ccccc1)C(=O)c1ccccc1Cl — higher, 162 °C
- COc1cc(C=O)ccc1F — higher, 62 °C
